Reference: patent publication US6613317B1, “Volatile attractants for diabrotica species” (priority 1988, dated 2003)
Marks after values point to notes of the source that are not given here.

Columns and labels:
[1] = test system: western corn rootworm (WCR) adults; details: cited from earlier work
[2] = test system: NCR; assay: Limit of response rating of squash blossom volatiles on sticky traps (Example 5); assay type: in vivo, Diabrotica barberi; details: 24 hour; four replicate traps; 0.01 mg to 200 mg
Method in brief: (§1)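 Adult Diabrotica beetles were tested against cylindrical sticky traps baited with cotton wicks holding 0.01 mg to 200 mg of individual Cucurbita maxima blossom volatiles. Response limit rated by trap catch.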

[3] = test system: WCR; assay: as above; assay type: in vivo, Diabrotica virgifera virgifera; details: 24 hour; for Attractant Rating WCR (by limit of response): four replicate traps, 0.01 mg to 200 mg; for LR for WCR: sticky traps
Method in brief: as §1

[4] = test system: SCR; assay: as above; assay type: in vivo, Diabrotica undecimpunctata howardi; details: 24 hour; four replicate traps; 0.01 mg to 200 mg
Method in brief: as §1

[5] = test system: southern corn rootworm (SCR) adults; assay: Sticky trap attraction in sweet corn plots (Example 1); assay type: in vivo, Diabrotica undecimpunctata howardi; details: for Mean number of SCR per trap (±standard deviation): n = 4
Method in brief: (§2)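 Field trapping in sweet-corn plots beside a Blue Hubbard squash trap crop; lures on mineral-oil-impregnated cotton wicks atop sticky paper-carton traps on 1-m posts, 4 replicates in randomized complete blocks. Beetles counted after 24 h; VIPAE/VIP/TIC mixtures and single components at 1–300 mg per trap, ANOVA/Duncan at P=0.05.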

[6] = test system: western corn rootworm (WCR) adults; assay: as above; assay type: in vivo, Diabrotica virgifera virgifera; details: for Mean number of WCR per trap (±standard deviation): n = 4
Method in brief: as §2

[7] = test system: rootworm beetles; assay: Small-plot comparison of insecticides in TEX×PEP dry ground bait; assay type: in vivo; details: 0.01-0.1% (wt/wt); 1- to 3.3-m2 plots of corn and cucurbits
Experimental: Bait applications to evaluate various insecticides. The relative effectiveness of a variety of insecticides incorporated at 0.01-0.1% (wt/wt) in TEX×PEP dry ground bait was compared. The following insecticides were tested: bendiocarb, carbaryl, carbofuran, methomyl, oxamyl; dimethoate, malathion, isofenphos, phospholan, and mephospholan; and permethrin, cypermethrin, fenvalerate, and flucythrinate. […] The overall greater effectiveness of the carbamates in these small-plot tests is attributed to their rapid kill and lack of repellent effect. The pyrethroids were somewhat repellent to the rootworm beetles.

[8] = test system: western corn rootworm (WCR) adults; assay: Sticky trap attraction in corn, estragole analogues (Example 3); assay type: in vivo, Diabrotica virgifera virgifera; details: 100 mg per trap
Method in brief: (§3)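 Cotton wicks dosed with 100 mg or 100 μL attractant per trap on TangleTrap-coated cartons, four replicates 10 m apart on 1 m posts at field edges of hybrid or sweet corn. Mean beetles caught after ~24 h; log-transformed ANOVA with Duncan's test, P=0.05.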

[9] = test system: southern corn rootworm (SCR) adults; assay: Sticky trap attraction in corn, estragole analogues (Example 3); assay type: in vivo, Diabrotica undecimpunctata howardi; details: September 11; 100 mg per trap; n = 4
Method in brief: as §3

[10] = test system: D. barberi; assay: Sticky trap attraction along hybrid corn, Pomology South Farms (Example 2); assay type: in vivo, Diabrotica barberi; details: 100 mg per trap, n = 4
Experimental: (§4) The candidate lures in all experiments were purchased commercially and exceeded 98% purity. The test chemicals were applied by capillary micropipettes to cotton dental wicks which were attached to the tops of 1.0 liter cylindrical paper cartons covered with TangleTrap™ (Tanglefoot Co., Grand Rapids, Mich.). The sticky trap techniques used were as described in Example 1. Cinnamyl alcohol and para-methoxycinnamaldehyde, which are solids, were dissolved in glass-distilled acetone prior to dosing the cotton wicks. All treatments were applied at a dosage of 100 mg per trap. 1,2,4-trimethoxybenzene, indole, and trans-cinnamaldehyde were mixed in a ratio of 1:1:1, by weight, immediately prior to dosing the cotton wicks. Control traps had untreated cotton wicks. Four replicates of treated and untreated traps were randomly positioned 10 meters apart on top of 1 m high posts along the border of a eight foot wide strip cut through the middle of a 4.05 ha relict prairie at Trelease Woods (ca. two miles northeast of Urbana, Ill.). The field consisted primarily of Andropogon gerardii Vitman (big bluestem) and a variety of composites. The tests were conducted in mid-August of two years and were timed to coincide with the presence of D. cristata and D. barberi adults in the flower heads of Canada thistle (Carduus arvensis Robson). In the second year, several new attractants of D. v. virgifera and D. barberi were tested in Trelease Woods and along the edge of a 0.8 ha field of hybrid corn located at the Pomology South Farms, Urbana, Ill. Attraction of Diabrotica species to the various lures was measured by the mean number of beetles caught after 24-h. On one date in late August of the first year, D. cristata and D. barberi were removed from the traps and sexed in the laboratory. The significance of treatments in all tests was determined by an analysis of variance and the individual means were separated by Duncan's multiple range test (Statistical Package for Social Science, Nie, et al., SPSS: statistical package for the social sciences, 2nd ed. McGraw-Hill, New York (1975). Data were logarithmically transformed for statistical analysis and the means and standard deviations are presented for the untransformed data.

[11] = test system: D. u. howardi; assay: as above; assay type: in vivo, Diabrotica undecimpunctata howardi; details: 100 mg per trap, n = 4
Experimental: as §4

[12] = test system: D. cristata; assay: Sticky trap attraction in prairie habitat, Trelease Woods (Example 2); assay type: in vivo, Diabrotica cristata; details: 100 mg per trap, n = 4
Experimental: as §4, with “[…].” for “All treatments were applied at a dosage of 100 mg per trap. 1,2,4-trimethoxybenzene, indole, and trans-cinnamaldehyde were mixed in a ratio of 1:1:1, by weight, immediately prior to dosing the cotton wicks.”

[13] = test system: D. u. howardi; assay: as above; assay type: in vivo, Diabrotica undecimpunctata howardi; details: 100 mg per trap, n = 4
Experimental: as §4, with “[…].” for “All treatments were applied at a dosage of 100 mg per trap. 1,2,4-trimethoxybenzene, indole, and trans-cinnamaldehyde were mixed in a ratio of 1:1:1, by weight, immediately prior to dosing the cotton wicks.”

[14] = test system: D. v. virgifera; assay: as above; assay type: in vivo, Diabrotica virgifera virgifera; details: 100 mg per trap, n = 4
Experimental: as §4, with “[…].” for “All treatments were applied at a dosage of 100 mg per trap. 1,2,4-trimethoxybenzene, indole, and trans-cinnamaldehyde were mixed in a ratio of 1:1:1, by weight, immediately prior to dosing the cotton wicks.”

[15] = test system: D. barberi; assay: as above; assay type: in vivo, Diabrotica barberi; details: 100 mg per trap, n = 4
Experimental: as §4, with “[…].” for “All treatments were applied at a dosage of 100 mg per trap. 1,2,4-trimethoxybenzene, indole, and trans-cinnamaldehyde were mixed in a ratio of 1:1:1, by weight, immediately prior to dosing the cotton wicks.”

[16] = test system: D. v. virgifera; assay: Sticky trap attraction along hybrid corn, Pomology South Farms (Example 2); assay type: in vivo, Diabrotica virgifera virgifera; details: 100 mg per trap, n = 4
Experimental: as §4

[17] = August 4, second year, each compound 20 mg per trap
[18] = August 7, second year, each compound 20 mg per trap
[19] = August first year, South Farms, 24 h, single compounds 100 mg per trap, mixture 20 mg of each component
[20] = August first year, single compounds 100 mg per trap, mixture 20 mg each component

Compound: CCC(=O)OC(C)CCCCCC(C)CC (stereo not shown) [8-methyl-2-decylpropanoate]
- amount per sticky trap that attracted male WCR ([1]; per sticky trap): 5 µg

Compound: c1ccc2[nH]ccc2c1 [Indole]
- LR values for WCR attraction (literature) ([1]; in vivo): 1 mg
- Attractant Rating NCR (by limit of response) [2]: 0 (200)
- Attractant Rating WCR (by limit of response) [3]: +4 (1-3)
- LR for WCR [3]: 1 mg
- Attractant Rating SCR (by limit of response) [4]: 0 (200)
- relative percent activity (SCR) as compared with the highest mean value for the test date [5, 17]: 4%
- Mean number of SCR per trap (±standard deviation) [5, 17]: 1.5 ± 1.0 per trap
- relative percent activity (SCR) as compared with the highest mean value for the test date [5, 18]: 6%
- Mean number of SCR per trap (±standard deviation) [5, 18]: 2.8 ± 1.3 per trap
- Mean number of SCR per trap (±standard deviation) [5, 19]: 2.3 ± 2.1 per trap
- relative percent activity of the mean SCR trap catch as compared with the highest mean value in the column [5, 20]: 11%
- relative percent activity (WCR) as compared with the highest mean value for the test date [6, 17]: 100%
- Mean number of WCR per trap (±standard deviation) [6, 17]: 51.3 ± 24.4 per trap
- relative percent activity (WCR) as compared with the highest mean value for the test date [6, 18]: 87%
- Mean number of WCR per trap (±standard deviation) [6, 18]: 27.5 ± 11.8 per trap
- Mean number of WCR per trap (±standard deviation) [6, 19]: 3.3 ± 2.1 per trap
- relative percent activity of the mean WCR trap catch as compared with the highest mean value in the column [6, 20]: 49%

Compound: CCOP(=S)(NC(C)C)Oc1ccccc1C(=O)OC(C)C (stereo not shown) [Isofenphos, isofenphos]
- relative effectiveness of insecticides in TEX×PEP dry ground bait [7]: most effective of the organophosphorus insecticides

Compound: CCOc1ccc(OC)cc1 [VI, 4-methoxyphenyl ethyl ether]
- Relative percent activity as compared with the highest mean in the column (WCR) ([8]; August 29): 8%
- Mean number of WCR per sticky trap (±standard deviation) after 24 hours ([8]; August 29, n = 4): 12.0 ± 1.8 per sticky trap
- Relative percent activity as compared with the highest mean in the column (WCR) ([8]; July 30): 39%
- Mean number of WCR per sticky trap (±standard deviation) after 24 hours ([8]; July 30, n = 4): 32.0 ± 8.4 per sticky trap
- melting point: 34 to 35 °C

Compound: COC(=O)C=Cc1ccc(OC)cc1 [XIV, 4-methoxycinnamic acid methyl ester]
- Mean number of WCR adults per sticky trap (±standard deviation) after 24 hours ([8]; September 11, n = 4): 1.0 ± 1.1^a per sticky trap
- Mean number of SCR adults per sticky trap (±standard deviation) after 24 hours [9]: 0.7 ± 1.5^a per sticky trap
- melting point: 87 to 89 °C

Compound: CNC(=O)Oc1cccc2c1OC(C)(C)O2 [bendicarb, bendiocarb]
- relative effectiveness of insecticides in TEX×PEP dry ground bait [7]: more effective than the pyrethroids

Compound: CNC(=O)Oc1cccc2ccccc12 [carbaryl]
- relative effectiveness of insecticides in TEX×PEP dry ground bait [7]: more effective than the pyrethroids

Compound: CNC(=O)Oc1cccc2c1OC(C)(C)C2 [carbofuran]
- relative effectiveness of insecticides in TEX×PEP dry ground bait [7]: more effective than the pyrethroids

Compound: CNC(=O)ON=C(C)SC [methomyl]
- relative effectiveness of insecticides in TEX×PEP dry ground bait [7]: more effective than the pyrethroids

Compound: CC(=O)/C=C/C1=C(C)CCCC1(C)C [β-ionone]
- Mean number of D. barberi per stick trap per day (±standard deviation) in corn ([10]; August 7): 0.5 ± 0.7^a per stick trap per day
- Mean number of D. barberi per stick trap per day (±standard deviation) in corn ([10]; August 18): 1.5 ± 1.0^a per stick trap per day
- Mean number of D. u. howardi per stick trap per day (±standard deviation) in corn ([11]; August 7): 1.8 ± 2.4^a per stick trap per day
- Mean number of D. u. howardi per stick trap per day (±standard deviation) in corn ([11]; August 18): 0.5 ± 0.7^a per stick trap per day
- Mean number of D. cristata per day (±standard deviation) ([12]; August 11, 1987): 17.3 ± 8.7^b per day
- Mean number of D. cristata per day (±standard deviation) ([12]; August 14, 1987): 5.3 ± 2.2^b per day
- Attractant Rating NCR (by limit of response) [2]: 0 (200)
- Attractant Rating WCR (by limit of response) [3]: +4 (1-3)
- LR for WCR [3]: 3 mg
- Attractant Rating SCR (by limit of response) [4]: 0 (200)
- Mean number of D. u. howardi per day (±standard deviation) ([13]; August 11, 1987): 0.3 ± 0.5^a per day
- Mean number of D. u. howardi per day (±standard deviation) ([13]; August 14, 1987): 0.0^a per day
- Mean number of D. v. virgifera per day (±standard deviation) ([14]; August 11, 1987): 4.0 ± 0.8^b per day
- Mean number of D. v. virgifera per day (±standard deviation) ([14]; August 14, 1987): 2.3 ± 1.3^b per day
- Mean number of D. barberi per day (±standard deviation) ([15]; August 11, 1987): 0.3 ± 0.5^ab per day
- Mean number of D. barberi per day (±standard deviation) ([15]; August 14, 1987): 0.3 ± 0.5^a per day
- Mean number of D. v. virgifera per stick trap per day (±standard deviation) in corn ([16]; August 7): 263.5 ± 94.6^cd per stick trap per day
- Mean number of D. v. virgifera per stick trap per day (±standard deviation) in corn ([16]; August 18): 89.0 ± 18.2^b per stick trap per day
